From article PMC9884089 (Journal of Medicinal Chemistry, 2023) come the findings set out here.

Data set [1] deals with HeLa Flp-In T-REx-PARP10 cells. Description: PARP10 rescue assay (colony formation, Dox-induced PARP10 overexpression). The settings on record: for EC50: Homo sapiens, HeLa, read-out: PARP10 rescue EC50; for Rescue of cells from PARP10-induced cell death: at 1 μM, colony formation. The data set is classed as cell-based, human. As to the method: HeLa Flp-In T-REx-PARP10 and -PARP10-G888W cells were grown in DMEM medium supplemented with 10% heat-inactivated fetal calf serum at 37 °C in 5% CO2.[92] For colony formation assays, 500 HeLa cells were seeded in 6-well culture plates. Once the cells adhered, protein expression was induced by adding 500 ng/mL Dox. […] The number of colonies was assessed using ImageJ. EC50 curves were fitted using three variables in GraphPad Prism version 8.02.

Data set [2] deals with T1, TNKS2 (Homo sapiens, UniProt Q9H2K2).
T1 sequence (Q9H2K2 1-1166): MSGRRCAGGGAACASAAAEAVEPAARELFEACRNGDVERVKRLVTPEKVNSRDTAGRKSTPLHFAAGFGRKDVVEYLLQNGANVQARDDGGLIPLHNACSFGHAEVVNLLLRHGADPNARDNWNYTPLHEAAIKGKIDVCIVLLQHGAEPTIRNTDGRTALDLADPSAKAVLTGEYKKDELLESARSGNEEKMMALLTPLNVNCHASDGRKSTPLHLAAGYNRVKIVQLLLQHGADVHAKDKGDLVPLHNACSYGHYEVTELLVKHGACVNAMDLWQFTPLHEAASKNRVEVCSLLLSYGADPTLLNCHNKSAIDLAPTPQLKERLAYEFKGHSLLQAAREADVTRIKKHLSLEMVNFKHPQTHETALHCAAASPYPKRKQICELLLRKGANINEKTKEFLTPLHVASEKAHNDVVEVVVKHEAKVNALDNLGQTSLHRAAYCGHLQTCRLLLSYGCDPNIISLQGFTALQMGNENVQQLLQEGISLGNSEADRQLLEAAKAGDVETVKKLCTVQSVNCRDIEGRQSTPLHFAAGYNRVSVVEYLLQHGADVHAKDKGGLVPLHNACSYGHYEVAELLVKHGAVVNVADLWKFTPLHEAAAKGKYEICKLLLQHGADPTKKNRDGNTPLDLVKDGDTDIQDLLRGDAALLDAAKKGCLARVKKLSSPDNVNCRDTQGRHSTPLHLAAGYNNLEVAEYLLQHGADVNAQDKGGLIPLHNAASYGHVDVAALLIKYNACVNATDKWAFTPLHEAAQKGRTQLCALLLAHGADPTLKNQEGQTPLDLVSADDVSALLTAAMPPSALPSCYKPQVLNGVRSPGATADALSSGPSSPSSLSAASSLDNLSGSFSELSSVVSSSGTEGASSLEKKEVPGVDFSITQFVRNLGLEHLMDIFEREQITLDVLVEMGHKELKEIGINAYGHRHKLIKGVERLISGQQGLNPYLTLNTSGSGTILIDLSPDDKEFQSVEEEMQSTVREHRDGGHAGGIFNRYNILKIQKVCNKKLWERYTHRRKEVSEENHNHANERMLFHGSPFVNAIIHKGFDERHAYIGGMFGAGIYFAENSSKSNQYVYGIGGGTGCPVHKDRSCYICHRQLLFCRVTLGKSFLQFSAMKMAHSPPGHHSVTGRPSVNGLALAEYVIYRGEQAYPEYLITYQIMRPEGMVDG
Put plainly: biochemical. To be noted: read-out: TNKS2 IC50; > = less than 50% inhibition at highest concentration. As for the experimental part: The proteins used in Tables 1–3 were produced as described earlier. Dockerin constructs to allow enhanced activity assays for mono-ARTs (Table 4) were produced in Escherichia coli with an N-terminal maltose binding protein (MBP) and a C-terminal dockerin domain from Hungateiclostridium thermocellum Cel48s as described recently.[47]
Inhibition experiments were performed using a homogenous assay measuring NAD+ consumption.[80]−[82] Reactions were carried out in quadruplicate, and IC50 curves were fitted using sigmoidal dose response curve (four variables) in GraphPad Prism version 8.02. […] Assay conditions for PARP2, TNKS2, PARP10, and PARP15 (Tables 1–3) were recently reported.[44] The conditions for the proximity-enhanced mono-ART assays (Table 4) were also reported recently.[47] PARP6 (400 nM) inhibition was measured using the standard buffer (50 mM sodium phosphate pH 7.0) for the enhanced activity assay using 500 nM NAD^+ and 18 h incubation in r.t..

Data set [3] can be described thus: Stability in MeOH. It is filed as physicochemical. The settings on record: 500 μM. As for the experimental part:
For the stability measurements in polar solvents, each compound was dissolved at room temperature in MeOH or PBS (0.025 M, pH 7.4) up to a final concentration of 500 μM.

Data set [4] in a line: Stability in human plasma. The data set is classed as in vitro ADME. The settings on record: 37 °C. As to the method: HEPES buffer (0.9 mL, 25 mM, 140 mM NaCl, pH 7.4), and 0.1 mL of each compound in DMSO (2.0 mM). The solution was mixed in a test tube that was incubated at 37 °C. […] The supernatant was removed and analyzed by UV/LC–MS.

Turning to `COc1ccc(OC)c2c1sc1nnc(N)n12` [Compound 27, 5,8-Dimethoxy[1,2,4]triazolo[3,4-b][1,3]benzothiazol-3-amine], in data set [1], the EC50 worked out at 0.15 µM and the “Rescue of cells from PARP10-induced cell death” value is reported as “efficiently rescued cells from PARP10-induced cell death”. Moreover, in data set [2], the IC50 was determined as 10 µM. The “stab. in MeOH” value in data set [3] is above 24 h. The “stab in human plasma” value in data set [4] was above 24 h.
Take `Cc1ccc2c(c1)sc1nnc(N)n12` [Compound 21, 7-Methyl[1,2,4]triazolo[3,4-b][1,3]benzothiazol-3-amine]: in data set [1], the EC50 was found to be 0.5 µM and the “Rescue of cells from PARP10-induced cell death” value is on record as “efficiently rescued cells from PARP10-induced cell death”. Further, the IC50 in data set [2] was found to be 5.7 µM. Also, the “stab. in MeOH” value in data set [3] is given as above 24 h. Besides, the “stab in human plasma” value in data set [4] was above 24 h.
